# Laboratory results published in ChEMBL document CHEMBL4325840, “Design, synthesis and evaluation of novel hybrids between 4-anilinoquinazolines and substituted triazoles as potent cytotoxic agents” (Bioorg Med Chem Lett, 2018).
# Counter-ions that a name gives are not always drawn.
# Test system: SK-LU-1
# Assay: Potency index, ratio of erlotinib hydrochloride IC50 to compound IC50 for human SK-LU-1 cells
# Type: functional
# Conditions: not given
row,SMILES,Ratio IC50
1,O=[N+]([O-])c1cccc(-n2cc(-c3cccc(Nc4ncnc5cc6c(cc45)OCO6)c3)nn2)c1,<=100

# Test system: KB
# Assay: Cytotoxicity against human KB cells after 3 days by MTT assay
# Type: functional, cell-based
# Conditions: Homo sapiens, KB, 72 h
row,SMILES,IC50
1,O=[N+]([O-])c1ccc(-n2cc(-c3cccc(Nc4ncnc5cc6c(cc45)OCO6)c3)nn2)cc1,30.1 µM
2,O=[N+]([O-])c1cccc(-n2cc(-c3cccc(Nc4ncnc5cc6c(cc45)OCCCO6)c3)nn2)c1,53.2 µM
3,O=[N+]([O-])c1cccc(-n2cc(-c3cccc(Nc4ncnc5ccccc45)c3)nn2)c1,104 µM
4,O=[N+]([O-])c1ccc(-n2cc(-c3cccc(Nc4ncnc5cc6c(cc45)OCCO6)c3)nn2)cc1,79.1 µM
5,O=[N+]([O-])c1ccccc1-n1cc(-c2cccc(Nc3ncnc4cc5c(cc34)OCO5)c2)nn1,193 µM
6,C#Cc1cccc(Nc2ncnc3cc4c(cc23)OCO4)c1,75.6 µM
7,C#Cc1cccc(Nc2ncnc3cc4c(cc23)OCCCO4)c1,54.8 µM
8,Cc1c2ccncc2c(C)c2c1[nH]c1ccccc12 [ELLIPTECINE],1.95 µM
9,O=[N+]([O-])c1cccc(-n2cc(-c3cccc(Nc4ncnc5cc6c(cc45)OCO6)c3)nn2)c1,6.35 µM

# Same assay, conditions: kb
row,SMILES,IC50
1,C#Cc1cccc(Nc2ncnc3cc(OCCOC)c(OCCOC)cc23)c1 [ERLOTINIB],13 µM
2,C#Cc1cccc(Nc2ncnc3cc(OCCOC)c(OCCOC)cc23)c1 [ERLOTINIB HYDROCHLORIDE],49.6 µM

# Test system: KB
# Assay: Potency index, ratio of erlotinib hydrochloride IC50 to compound IC50 for human KB cells
# Type: functional
# Conditions: not given
row,SMILES,Ratio IC50
1,O=[N+]([O-])c1cccc(-n2cc(-c3cccc(Nc4ncnc5cc6c(cc45)OCO6)c3)nn2)c1,<=100

# Test system: HepG2
# Assay: Potency index, ratio of erlotinib hydrochloride IC50 to compound IC50 for human HepG2 cells
# Type: functional
# Conditions: not given
row,SMILES,Ratio IC50
1,O=[N+]([O-])c1cccc(-n2cc(-c3cccc(Nc4ncnc5cc6c(cc45)OCO6)c3)nn2)c1,<=100

# Test system: KB
# Assay: Potency index, ratio of erlotinib IC50 to compound IC50 for human KB cells
# Type: functional
# Conditions: not given
row,SMILES,Ratio IC50
1,O=[N+]([O-])c1cccc(-n2cc(-c3cccc(Nc4ncnc5cc6c(cc45)OCO6)c3)nn2)c1,<=100

# Test system: SK-LU-1
# Assay: Potency index, ratio of erlotinib IC50 to compound IC50 for human SK-LU-1 cells
# Type: functional
# Conditions: not given
row,SMILES,Ratio IC50
1,O=[N+]([O-])c1cccc(-n2cc(-c3cccc(Nc4ncnc5cc6c(cc45)OCO6)c3)nn2)c1,<=100

# Test system: SK-LU-1
# Assay: Cytotoxicity against human SK-LU-1 cells after 3 days by MTT assay
# Type: functional, cell-based
# Conditions: Homo sapiens, SK-LU-1, 72 h
row,SMILES,IC50
1,O=[N+]([O-])c1ccc(-n2cc(-c3cccc(Nc4ncnc5cc6c(cc45)OCO6)c3)nn2)cc1,44.5 µM
2,O=[N+]([O-])c1cccc(-n2cc(-c3cccc(Nc4ncnc5cc6c(cc45)OCCCO6)c3)nn2)c1,230 µM
3,O=[N+]([O-])c1cccc(-n2cc(-c3cccc(Nc4ncnc5ccccc45)c3)nn2)c1,260 µM
4,O=[N+]([O-])c1ccc(-n2cc(-c3cccc(Nc4ncnc5cc6c(cc45)OCCO6)c3)nn2)cc1,54.8 µM
5,O=[N+]([O-])c1ccccc1-n1cc(-c2cccc(Nc3ncnc4cc5c(cc34)OCO5)c2)nn1,217 µM
6,C#Cc1cccc(Nc2ncnc3cc4c(cc23)OCO4)c1,64.9 µM
7,C#Cc1cccc(Nc2ncnc3cc4c(cc23)OCCCO4)c1,80.7 µM
8,Cc1c2ccncc2c(C)c2c1[nH]c1ccccc12 [ELLIPTECINE],1.38 µM
9,O=[N+]([O-])c1cccc(-n2cc(-c3cccc(Nc4ncnc5cc6c(cc45)OCO6)c3)nn2)c1,6.66 µM

# Same assay, conditions: sk-lu-1
row,SMILES,IC50
1,C#Cc1cccc(Nc2ncnc3cc(OCCOC)c(OCCOC)cc23)c1 [ERLOTINIB],99.8 µM
2,C#Cc1cccc(Nc2ncnc3cc(OCCOC)c(OCCOC)cc23)c1 [ERLOTINIB HYDROCHLORIDE],31.2 µM

# Test system: HepG2
# Assay: Potency index, ratio of erlotinib IC50 to compound IC50 for human HepG2 cells
# Type: functional
# Conditions: not given
row,SMILES,Ratio IC50
1,O=[N+]([O-])c1cccc(-n2cc(-c3cccc(Nc4ncnc5cc6c(cc45)OCO6)c3)nn2)c1,<=100

# Test system: HepG2
# Assay: Cytotoxicity against human HepG2 cells after 3 days by MTT assay
# Type: functional, cell-based
# Conditions: Homo sapiens, HepG2, 72 h
row,SMILES,IC50
1,O=[N+]([O-])c1ccc(-n2cc(-c3cccc(Nc4ncnc5cc6c(cc45)OCO6)c3)nn2)cc1,11.3 µM
2,O=[N+]([O-])c1cccc(-n2cc(-c3cccc(Nc4ncnc5cc6c(cc45)OCCCO6)c3)nn2)c1,76.8 µM
3,O=[N+]([O-])c1cccc(-n2cc(-c3cccc(Nc4ncnc5ccccc45)c3)nn2)c1,287 µM
4,O=[N+]([O-])c1ccc(-n2cc(-c3cccc(Nc4ncnc5cc6c(cc45)OCCO6)c3)nn2)cc1,230 µM
5,O=[N+]([O-])c1ccccc1-n1cc(-c2cccc(Nc3ncnc4cc5c(cc34)OCO5)c2)nn1,207 µM
6,C#Cc1cccc(Nc2ncnc3cc4c(cc23)OCO4)c1,26.2 µM
7,C#Cc1cccc(Nc2ncnc3cc4c(cc23)OCCCO4)c1,69.9 µM
8,Cc1c2ccncc2c(C)c2c1[nH]c1ccccc12 [ELLIPTECINE],2.72 µM
9,O=[N+]([O-])c1cccc(-n2cc(-c3cccc(Nc4ncnc5cc6c(cc45)OCO6)c3)nn2)c1,6.88 µM

# Same assay, conditions: hepg2
row,SMILES,IC50
1,C#Cc1cccc(Nc2ncnc3cc(OCCOC)c(OCCOC)cc23)c1 [ERLOTINIB HYDROCHLORIDE],14.2 µM
